Data as given in patent US20240208992A1, “MACROCYCLES AS CFTR MODULATORS” (Idorsia Pharmaceuticals Ltd, priority 2021, published 2024).

Target: human F508del-CFTR (Homo sapiens, UniProt P13569, DEL508-508)
Assay: F508del-CFTR cell surface expression (corrector activity), DiscoveRx ß-galactosidase complementation chemiluminescence assay in recombinant U2OS cell line;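 note: U2OS cells co-expressing ProLink-tagged F508del-CFTR and a membrane-anchored enzyme acceptor, where more surface CFTR restores β-galactosidase activity measured by chemiluminescence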
Settings: for EC50: EC50, F508del-CFTR cell surface expression; for Emax: U2OS
[1] = U2OS cell line, 16h compound incubation, geomean values
[2] = in relation to the Emax of the corrector lumacaftor (=100%), U2OS cell line, 16h compound incubation, arithmetic mean values
[3] = U2OS cells, 16h compound incubation, geomean values
[4] = in relation to Emax of corrector lumacaftor (=100%), arithmetic mean values

human F508del-CFTR, sequence (P13569 with tags, fused parts or gaps DEL508-508): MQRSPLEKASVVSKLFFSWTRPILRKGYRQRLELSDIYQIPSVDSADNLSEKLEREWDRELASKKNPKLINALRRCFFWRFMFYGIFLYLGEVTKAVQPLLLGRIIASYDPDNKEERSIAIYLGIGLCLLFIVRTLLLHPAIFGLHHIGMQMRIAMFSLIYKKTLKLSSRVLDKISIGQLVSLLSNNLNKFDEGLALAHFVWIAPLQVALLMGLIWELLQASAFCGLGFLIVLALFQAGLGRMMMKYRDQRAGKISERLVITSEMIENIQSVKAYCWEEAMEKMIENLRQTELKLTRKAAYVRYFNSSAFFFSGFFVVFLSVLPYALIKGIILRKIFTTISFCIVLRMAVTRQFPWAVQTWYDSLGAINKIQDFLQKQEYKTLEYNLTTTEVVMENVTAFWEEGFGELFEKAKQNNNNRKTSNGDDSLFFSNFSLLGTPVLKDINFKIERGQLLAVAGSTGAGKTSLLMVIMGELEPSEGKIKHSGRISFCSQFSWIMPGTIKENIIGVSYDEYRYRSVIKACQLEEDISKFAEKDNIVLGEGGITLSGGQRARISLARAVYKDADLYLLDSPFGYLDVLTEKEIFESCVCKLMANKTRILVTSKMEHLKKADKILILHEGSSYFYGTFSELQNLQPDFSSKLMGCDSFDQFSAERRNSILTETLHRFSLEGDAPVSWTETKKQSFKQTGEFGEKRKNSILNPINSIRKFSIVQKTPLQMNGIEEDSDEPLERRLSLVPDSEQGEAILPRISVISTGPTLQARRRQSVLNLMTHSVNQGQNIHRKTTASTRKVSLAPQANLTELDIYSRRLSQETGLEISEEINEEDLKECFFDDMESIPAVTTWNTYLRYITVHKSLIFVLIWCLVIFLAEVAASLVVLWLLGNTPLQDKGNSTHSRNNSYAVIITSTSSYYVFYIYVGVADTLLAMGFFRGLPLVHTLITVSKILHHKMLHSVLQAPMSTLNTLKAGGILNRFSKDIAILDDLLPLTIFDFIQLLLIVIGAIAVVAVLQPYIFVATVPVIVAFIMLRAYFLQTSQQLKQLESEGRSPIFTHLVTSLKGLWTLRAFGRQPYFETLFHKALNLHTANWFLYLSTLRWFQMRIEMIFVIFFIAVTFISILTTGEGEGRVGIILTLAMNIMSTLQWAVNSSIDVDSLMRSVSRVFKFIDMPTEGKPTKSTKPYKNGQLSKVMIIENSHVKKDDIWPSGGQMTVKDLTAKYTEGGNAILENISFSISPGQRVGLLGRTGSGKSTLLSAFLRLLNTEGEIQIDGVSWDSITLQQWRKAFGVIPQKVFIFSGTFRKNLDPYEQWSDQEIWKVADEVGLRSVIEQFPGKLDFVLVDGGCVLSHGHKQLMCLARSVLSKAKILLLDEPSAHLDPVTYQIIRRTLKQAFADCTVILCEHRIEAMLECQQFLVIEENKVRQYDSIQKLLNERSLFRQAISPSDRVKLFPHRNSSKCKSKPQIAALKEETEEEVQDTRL

Compound | EC50 [3] | Emax [4] | other results
COc1ccc(CCNC(=O)[C@@H]2CC(=O)N(C)[C@@H](CC(C)C)C(=O)N3CCCC[C@@H]3C(=O)N[C@H](Cc3ccccc3)COc3cnc4ccccc4c3C(=O)N2)cc1F [Example 100, (9S,13S,19aR,22R)-22-benzyl-N-(3-fluoro-4-methoxyphenethyl)-13-isobutyl-12-methyl-7,11,14,20-tetraoxo-7,8,9,10,11,12,13,14,17,18,19,19a,20,21,22,23-hexadecahydro-16H-pyrido[2′,11:6,7][1]oxa[4,7,10,14]tetraazacycloheptadecino[17,16-c]quinoline-9-carboxamide] | – | – | EC50 [1]: 184 nM; Emax [2]: 273%
COc1nccc2c1C(=O)N[C@H](C(=O)NCCc1noc(C3CC3)n1)CC(=O)N(C)[C@@H](CC(C)C)C(=O)N1CCCC[C@@H]1C(=O)N[C@H](Cc1ccccc1)CO2 [Example 483, (7S,11S,17aR,20R)-20-benzyl-N-(2-(5-cyclopropyl-1,2,4-oxadiazol-3-yl)ethyl)-11-isobutyl-4-methoxy-10-methyl-5,9,12,18-tetraoxo-5,6,7,8,9,10,11,12,15,16,17,17a,18,19,20,21-hexadecahydro-14H-dipyrido[2,1-f:3′,4′-p][1]oxa[4,7,10,14]tetraazacycloheptadecine-7-carboxamide] | 517 nM | 311% | –
CC(C)C[C@H]1C(=O)N(C)CC(=O)N[C@H](Cc2ccccc2)COc2ccc3c(c2C(=O)N[C@H](C(=O)NCCc2ccc4c(c2)OCO4)CC(=O)N1C)OC(F)(F)O3 [Example 408, (8R,14S,18S)-N-(2-(benzo[d][1,3]dioxol-5-yl)ethyl)-8-benzyl-2,2-difluoro-14-isobutyl-12,15-dimethyl-10,13,16,20-tetraoxo-7,8,9,10,11,12,13,14,15,16,17,18,19,20-tetradecahydro-[1,3]dioxolo[4′,5′:5,6]benzo[1,2-p][1]oxa[4,7,10,14]tetraazacycloheptadecine-18-carboxamide] | 241 nM | 134% | –
COc1cccc(CCNC(=O)[C@@H]2CC(=O)N(C)[C@@H](CC(C)C)C(=O)N3CCN(C4CCC4)C[C@@H]3C(=O)N[C@H](Cc3ccccc3)COc3ccc4ccccc4c3C(=O)N2)c1 [Example 355, (4aR,7R,18S,22S)-7-benzyl-3-cyclobutyl-22-isobutyl-N-(3-methoxyphenethyl)-21-methyl-5,16,20,23-tetraoxo-2,3,4,4a,5,6,7,8,16,17,18,19,20,21,22,23-hexadecahydro-1H-naphtho[1,2-p]pyrazino[2,1-f][1]oxa[4,7,10,14]tetraazacycloheptadecine-18-carboxamide] | – | – | EC50 [1]: 87 nM; Emax [2]: 307%
COc1cccc(CCNC(=O)[C@@H]2CC(=O)N(C)[C@@H](CC(C)C)C(=O)N3CCN(S(=O)(=O)c4cc(OC)ccc4F)C[C@@H]3C(=O)N[C@H](Cc3ccccc3)COc3ccc4ccccc4c3C(=O)N2)c1 [Example 740, (4aR,7R,18S,22S)-7-benzyl-3-((2-fluoro-5-methoxyphenyl)sulfonyl)-22-isobutyl-N-(3-methoxyphenethyl)-21-methyl-5,16,20,23-tetraoxo-2,3,4,4a,5,6,7,8,16,17,18,19,20,21,22,23-hexadecahydro-1H-naphtho[1,2-p]pyrazino[2,1-f][1]oxa[4,7,10,14]tetraazacycloheptadecine-18-carboxamide] | 111 nM | 280% | –
Cc1cc(CCNC(=O)[C@@H]2CC(=O)N(C)[C@@H](CC(C)C)C(=O)N(C)[C@H](Cc3cccc4ccccc34)C(=O)N[C@H](Cc3ccccc3)COc3cnc4ccccc4c3C(=O)N2)on1 [Example 698, (3S,7S,10R,13R)-13-benzyl-7-isobutyl-6,9-dimethyl-N-(2-(3-methylisoxazol-5-yl)ethyl)-10-(naphthalen-1-ylmethyl)-1,5,8,11-tetraoxo-1,2,3,4,5,6,7,8,9,10,11,12,13,14-tetradecahydro-[1]oxa[4,7,10,14]tetraazacycloheptadecino[17,16-c]quinoline-3-carboxamide] | 199 nM | 313% | –
CC(C)C[C@H]1C(=O)N(C)C2(CC2)C(=O)N[C@H](Cc2ccccc2)COc2cnc3ccccc3c2C(=O)N[C@H](C(=O)NCCc2ccc(-c3ncccn3)cc2)CC(=O)N1C [Example 496, (3′S,7′S,13′R)-13′-benzyl-7′-isobutyl-6′,9′-dimethyl-1′,5′,8′,11′-tetraoxo-N-(4-(pyrimidin-2-yl)phenethyl)-2′,3′,4′,5′,6′,7′,8′,9′,11′,12′,13′,14′-dodecahydro-1′H-spiro[cyclopropane-1,10′-[1]oxa[4,7,10,14]tetraazacycloheptadecino[17,16-c]quinoline]-3′-carboxamide] | 523 nM | 317% | –
CC(C)C[C@H]1C(=O)N(C)C2(CC2)C(=O)N[C@H](Cc2ccccc2)COc2cnc3ccccc3c2C(=O)N[C@H](C(=O)NCCc2ccc(F)c(F)c2)CC(=O)N1C [Example 113, (3′S,7′S,13′R)-13′-benzyl-N-(3,4-difluorophenethyl)-7′-isobutyl-6′,9′-dimethyl-1′,5′,8′,11′-tetraoxo-2′,3′,4′,5′,6′,7′,8′,9′,11′,12′,13′,14′-dodecahydro-1′H-spiro[cyclopropane-1,10′-[1]oxa[4,7,10,14]tetraazacycloheptadecino[17,16-c]quinoline]-3′-carboxamide] | – | – | EC50 [1]: 369 nM; Emax [2]: 158%
CC(C)C[C@H]1C(=O)N(CCCc2ccccc2)CC(=O)N[C@H](Cc2ccccc2)COc2ccc3ccccc3c2C(=O)N[C@H](C(=O)NCCc2ccc3c(c2)OCO3)CC(=O)N1C [Example 626, (3S,7S,13R)-N-(2-(benzo[d][1,3]dioxol-5-yl)ethyl)-13-benzyl-7-isobutyl-6-methyl-1,5,8,11-tetraoxo-9-(3-phenylpropyl)-1,2,3,4,5,6,7,8,9,10,11,12,13,14-tetradecahydronaphtho[1,2-p][1]oxa[4,7,10,14]tetraazacycloheptadecine-3-carboxamide] | 163 nM | 253% | –
COc1cc(CCNC(=O)[C@@H]2CC(=O)N(C)[C@@H](CC(C)C)C(=O)N(C)[C@H](Cc3nc(C(F)(F)F)no3)C(=O)N[C@H](Cc3ccccc3)COc3cc(C)c4c(ccc[n+]4[O-])c3C(=O)N2)on1 [Example 982, (3S,7S,10R,13R)-13-benzyl-7-isobutyl-3-((2-(3-methoxyisoxazol-5-yl)ethyl)carbamoyl)-6,9,17-trimethyl-1,5,8,11-tetraoxo-10-((3-(trifluoromethyl)-1,2,4-oxadiazol-5-yl)methyl)-1,2,3,4,5,6,7,8,9,10,11,12,13,14-tetradecahydro-[1]oxa[4,7,10,14]tetraazacycloheptadecino[16,17-f]quinoline 18-oxide] | – | – | EC50 (U2OS cells, 16h compound incubation, geomean of several measurements): 236 nM; Emax (in relation to the Emax of the corrector lumacaftor (=100%), U2OS cells, 16h compound incubation, arithmetic mean): 530%
COc1cccc(CCNC(=O)[C@@H]2CC(=O)N(C)[C@@H](CC(C)C)C(=O)N(CCC3CCCCC3)CC(=O)N[C@H](Cc3ccccn3)COc3ccc4ccccc4c3C(=O)N2)c1 [Example 701, (3S,7S,13R)-9-(2-cyclohexylethyl)-7-isobutyl-N-(3-methoxyphenethyl)-6-methyl-1,5,8,11-tetraoxo-13-(pyridin-2-ylmethyl)-1,2,3,4,5,6,7,8,9,10,11,12,13,14-tetradecahydronaphtho[1,2-p][1]oxa[4,7,10,14]tetraazacycloheptadecine-3-carboxamide] | 165 nM | 268% | –
CC(C)C[C@H]1C(=O)N(C)CC(=O)N[C@H](Cc2ccccc2)COc2ccccc2C(=O)N[C@H](C(=O)NCCc2ccc3c(c2)OCO3)CC(=O)N1C [Example 687, (3R,9S,13S)-N-(2-(benzo[d][1,3]dioxol-5-yl)ethyl)-3-benzyl-9-isobutyl-7,10-dimethyl-5,8,11,15-tetraoxo-2,3,4,5,6,7,8,9,10,11,12,13,14,15-tetradecahydrobenzo[p][1]oxa[4,7,10,14]tetraazacycloheptadecine-13-carboxamide] | 794 nM | 107% | –
CC(C)C[C@H]1C(=O)N2CCCC[C@@H]2C(=O)N[C@H](Cc2ccccc2)COc2cnc3ccccc3c2C(=O)N[C@H](C(=O)NCCc2ccc(F)c(F)c2)CC(=O)N1C [Example 75, (9S,13S,19aR,22R)-22-benzyl-N-(3,4-difluorophenethyl)-13-isobutyl-12-methyl-7,11,14,20-tetraoxo-7,8,9,10,11,12,13,14,17,18,19,19a,20,21,22,23-hexadecahydro-16H-pyrido[2′,1′:6,7][1]oxa[4,7,10,14]tetraazacycloheptadecino[17,16-c]quinoline-9-carboxamide] | – | – | EC50 [1]: 255 nM; Emax [2]: 191%
COc1cccc(CCNC(=O)[C@@H]2CC(=O)N(C)[C@@H](CC(C)C)C(=O)N3CCN(S(=O)(=O)CCN(C)C)C[C@@H]3C(=O)N[C@H](Cc3ccccc3)COc3ccc4ccccc4c3C(=O)N2)c1 [Example 735, (4aR,7R,18S,22S)-7-benzyl-3-((2-(dimethylamino)ethyl)sulfonyl)-22-isobutyl-N-(3-methoxyphenethyl)-21-methyl-5,16,20,23-tetraoxo-2,3,4,4a,5,6,7,8,16,17,18,19,20,21,22,23-hexadecahydro-1H-naphtho[1,2-p]pyrazino[2,1-f][1]oxa[4,7,10,14]tetraazacycloheptadecine-18-carboxamide] | 314 nM | 176% | –
CC(C)C[C@H]1C(=O)N(C)C2(CC2)C(=O)N[C@H](Cc2ccccc2)COc2ccc3ncccc3c2C(=O)N[C@H](C(=O)NCCc2cc(C3CC3)no2)CC(=O)N1C [Example 543, (3′S,7′S,13′R)-13′-benzyl-N-(2-(3-cyclopropylisoxazol-5-yl)ethyl)-7′-isobutyl-6′,9′-dimethyl-1′,5′,8′,11′-tetraoxo-2′,3′,4′,5′,6′,7′,8′,9′,11′,12′,13′,14′-dodecahydro-1′H-spiro[cyclopropane-1,10′-[1]oxa[4,7,10,14]tetraazacycloheptadecino[16,17-f]quinoline]-3′-carboxamide] | 785 nM | 399% | –
